# Reference: ChEMBL document CHEMBL1157995, “New acetylenic enol ethers of glycerol from the sponge Petrosia sp” (1999)
# System: K562
# Assay: Cytotoxicity against human K-562 cells after 5 days by MTT assay
# Type: functional
# Settings: K562, 120 h, read-out: LC50 (the source's name)
row,Compound,CC50 [µg/mL]
1,CCCCCC/C=C\C#C/C=C\OC[C@@H](O)CO [PETRORASPAILYNE A1],9.2
2,CC(C)CCCC/C=C\C#C/C=C\OC[C@@H](O)CO [PETRORASPAILYNE A2],57
3,CCC(C)CCCCC/C=C\C#C/C=C\OC[C@@H](O)CO (stereo partly specified) [PETRORASPAILYNE A3],29
4,CCCCCCCCC#C/C=C\OC[C@@H](O)CO [PETRORASPAILYNE B1],> 100
5,CCC(C)CCCCCC#C/C=C\OC[C@@H](O)CO (stereo partly specified) [PETRORASPAILYNE B2],> 100
6,CC(C)CCCCCCC#C/C=C\OC[C@@H](O)CO [PETRORASPAILYNE B3],> 100
